Measurements as given in patent US9302999B2, “Substituted triazoles as herbicides” (E. I. DU PONT DE NEMOURS AND COMPANY, priority 2012, dated 2016).
Read-outs that look alike come from different tables or passages of the source.

What was measured:
Type in all cases: in vivo
[1] = test system: barnyardgrass (Echinochloa crus-galli); test: Test A pre-/postemergence: barnyardgrass; details: for pest or weed control at 125 g/ha / pest or weed control at 500 g/ha: Echinochloa crus-galli, 240 h
In short: (§1)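 Pre: directed soil spray after planting in loam + sand. Post: same formulation (non-phytotoxic solvent + surfactant) on 1–2-leaf plants, 2–10 cm. Greenhouse ~10 d; visual injury 0–100 vs untreated.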

[2] = test system: crabgrass, large (large crabgrass, Digitaria sanguinalis); test: Test A pre-/postemergence: crabgrass, large; details: for pest or weed control at 125 g/ha / pest or weed control at 500 g/ha: Digitaria sanguinalis, 240 h
In short: as §1

[3] = test system: morningglory (Ipomoea spp.); test: Test A pre-/postemergence: morningglory; details: for pest or weed control at 125 g/ha / pest or weed control at 500 g/ha: Ipomoea, 240 h
In short: as §1

[4] = test system: pigweed (Amaranthus retroflexus); test: Test A pre-/postemergence: pigweed; details: for pest or weed control at 125 g/ha / pest or weed control at 500 g/ha: Amaranthus retroflexus, 240 h
In short: as §1

[5] = test system: blackgrass (Alopecurus myosuroides); test: Test C pre-/postemergence: blackgrass
In short: (§2)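 Visual injury scored 0–100 (100 = complete control) against untreated controls after 13–15 greenhouse days. Surfactant-containing solvent formulations applied either to soil after sowing (loam/sand) or over 1- to 4-leaf plants, 2–18 cm tall.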

[6] = test system: lambsquarters (Chenopodium album); test: Test C pre-/postemergence: lambsquarters
From the text: (§3) Seeds of plant species selected from blackgrass (Alopecurus myosuroides), bromegrass, downy (downy bromegrass, Bromus tectorum), foxtail, green (green foxtail, Setaria viridis), ryegrass, Italian (Italian ryegrass, Lolium multiflorum), winter wheat (Triticum aestivum), wild oat (Avena fatua), galium (catchweed bedstraw, Galium aparine), bermudagrass (Cynodon dactylon), surinam grass (Brachiaria decumbens), cocklebur (common cocklebur, Xanthium strumarium), corn (Zea mays), large crabgrass (Digitaria sanguinalis), woolly cupgrass (Eriochloa villosa), foxtail, giant (giant foxtail, Setaria faberii), goosegrass (Eleusine indica), johnsongrass (Sorghum halepense), kochia (Kochia scoparia), lambsquarters (Chenopodium album), morningglory (Ipomoea coccinea), nightshade (eastern black nightshade, Solanum ptycanthum), nutsedge, yellow (yellow nutsedge, Cyperus esculentus), pigweed (Amaranthus retroflexus), ragweed (common ragweed, Ambrosia elation), soybean (Glycine max), common (oilseed) sunflower (Helianthus annuus), Russian thistle (Salsola kali) and velvetleaf (Abutilon theophrasti) were planted into a blend of loam soil and sand and treated preemergence with test chemicals formulated in a non-phytotoxic solvent mixture which included a surfactant.
(§4) At the same time, plants selected from these crop and weed species and also barley (winter barley, Hordeum vulgare), canarygrass (Phalaris minor), chickweed (common chickweed, Stellaria media) windgrass (Apera spica-venti) and deadnettle (henbit deadnettle, Lamium amplexicaule) were planted in pots containing Redi-Earth® planting medium (Scotts Company, 14111 Scottslawn Road, Marysville, Ohio 43041) comprising spaghnum peat moss, vermiculite, wetting agent and starter nutrients and treated with postemergence applications of test chemicals formulated in the same manner. Plants ranged in height from 2 to 18 cm (1- to 4-leaf stage) for postemergence treatments.
(§5) Treated plants and controls were maintained in a greenhouse for 13 to 15 days, after which time all species were compared to controls and visually evaluated. Plant response ratings, summarized in Table C, are based on a scale of 0 to 100 where 0 is no effect and 100 is complete control. A dash (-) response means no test result.

[7] = test system: ragweed (common ragweed, Ambrosia elation); test: Test C pre-/postemergence: ragweed
From the text: as §3, §4, §5

soybean (Glycine max) = test: Test C pre-/postemergence: soybean
In short: as §2

[8] = Postemergence, 16 g ai/ha, scale 0 to 100, 0 no effect, 100 complete control
[9] = Postemergence, 31 g ai/ha, scale 0 to 100 (0 no effect, 100 complete control)
[10] = Postemergence, 62 g ai/ha, scale 0 to 100 (0 no effect, 100 complete control)
[11] = Postemergence, 125 g ai/ha, scale 0 to 100, 0 no effect, 100 complete control
[12] = Preemergence, 16 g ai/ha, scale 0 (no effect) to 100 (complete control)
[13] = Preemergence, 31 g ai/ha, scale of 0 to 100, 0 is no effect, 100 is complete control
[14] = Preemergence, 62 g ai/ha, scale 0 to 100, 0 no effect, 100 complete control
[15] = Preemergence, 125 g ai/ha, scale 0 to 100, 0 no effect, 100 complete control
[16] = Preemergence, 62 g ai/ha, scale of 0 to 100, 0 is no effect, 100 is complete control
[17] = Postemergence, 125 g ai/ha, 0 to 100 scale, 0 is no effect, 100 is complete control
[18] = Postemergence, 500 g ai/ha, visual rating on 0 to 100 scale (0 no effect, 100 complete control), approximately ten days
[19] = Preemergence, 125 g ai/ha, 0 to 100 scale (0 no effect, 100 complete control)
[20] = Preemergence, 500 g ai/ha, 0 to 100 scale, 0 is no effect, 100 is complete control
[21] = Postemergence, 250 g ai/ha, scale 0 to 100
[22] = Preemergence, 250 g ai/ha, scale 0 to 100, 0 no effect, 100 complete control

COc1nn(-c2ccc(C(F)(F)F)cc2)nc1Cc1ccnc(C(F)(F)F)c1 [Compound 15, 4-[[5-methoxy-2-[4-(trifluoromethyl)phenyl]-2H-1,2,3-triazol-4-yl]methyl]-2-(trifluoromethyl)pyridine]
pest or weed control at 125 g/ha ([1]; post-emergence, Postemergence, 125 g ai/ha, 0 to 100 scale, 0 is no effect, 100 is complete control, read-out: Barnyardgrass plant response rating): 90% | pest or weed control at 500 g/ha ([1]; post-emergence, Postemergence, 500 g ai/ha, visual rating on 0 to 100 scale (0 no effect, 100 complete control), approximately ten days, read-out: Barnyardgrass plant response rating): 90% | pest or weed control at 125 g/ha ([1]; pre-emergence, Preemergence, 125 g ai/ha, 0 to 100 scale (0 no effect, 100 complete control), read-out: Plant response rating, Barnyardgrass): 100% | pest or weed control at 500 g/ha ([1]; pre-emergence, Preemergence, 500 g ai/ha, 0 to 100 scale, 0 is no effect, 100 is complete control, read-out: Plant response rating, Barnyardgrass): 100% | pest or weed control at 125 g/ha ([2]; post-emergence, Postemergence, 125 g ai/ha, 0 to 100 scale, 0 is no effect, 100 is complete control, read-out: Crabgrass, Large plant response rating): 90% | pest or weed control at 500 g/ha ([2]; post-emergence, Postemergence, 500 g ai/ha, visual rating on 0 to 100 scale (0 no effect, 100 complete control), approximately ten days, read-out: Crabgrass, Large plant response rating): 90% | pest or weed control at 125 g/ha ([2]; pre-emergence, Preemergence, 125 g ai/ha, 0 to 100 scale (0 no effect, 100 complete control), read-out: Plant response rating, Crabgrass, Large): 100% | pest or weed control at 500 g/ha ([2]; pre-emergence, Preemergence, 500 g ai/ha, 0 to 100 scale, 0 is no effect, 100 is complete control, read-out: Plant response rating, Crabgrass, Large): 100% | pest or weed control at 125 g/ha ([3]; post-emergence, Postemergence, 125 g ai/ha, 0 to 100 scale, 0 is no effect, 100 is complete control, read-out: Morningglory plant response rating): 100% | pest or weed control at 500 g/ha ([3]; post-emergence, Postemergence, 500 g ai/ha, visual rating on 0 to 100 scale (0 no effect, 100 complete control), approximately ten days, read-out: Morningglory plant response rating): 100% | pest or weed control at 125 g/ha ([3]; pre-emergence, Preemergence, 125 g ai/ha, 0 to 100 scale (0 no effect, 100 complete control), read-out: Plant response rating, Morningglory): 60% | pest or weed control at 500 g/ha ([3]; pre-emergence, Preemergence, 500 g ai/ha, 0 to 100 scale, 0 is no effect, 100 is complete control, read-out: Plant response rating, Morningglory): 80% | pest or weed control at 125 g/ha ([4]; post-emergence, Postemergence, 125 g ai/ha, 0 to 100 scale, 0 is no effect, 100 is complete control, read-out: Pigweed plant response rating): 100% | pest or weed control at 500 g/ha ([4]; post-emergence, Postemergence, 500 g ai/ha, visual rating on 0 to 100 scale (0 no effect, 100 complete control), approximately ten days, read-out: Pigweed plant response rating): 100% | pest or weed control at 125 g/ha ([4]; pre-emergence, Preemergence, 125 g ai/ha, 0 to 100 scale (0 no effect, 100 complete control), read-out: Plant response rating, Pigweed): 100% | pest or weed control at 500 g/ha ([4]; pre-emergence, Preemergence, 500 g ai/ha, 0 to 100 scale, 0 is no effect, 100 is complete control, read-out: Plant response rating, Pigweed): 100% | Plant response rating, Blackgrass [5, 8]: 20 | Plant response rating, Blackgrass [5, 9]: 30 | Plant response rating, Blackgrass [5, 10]: 60 | Plant response rating, Blackgrass [5, 11]: 80 | Plant response rating, Blackgrass [5, 12]: 15 | Plant response rating, Blackgrass [5, 13]: 50 | Plant response rating, Blackgrass [5, 14]: 85 | Plant response rating, Blackgrass [5, 15]: 95 | Plant response rating, Lambsquarters [6, 8]: 100 | Plant response rating, Lambsquarters [6, 9]: 100 | Plant response rating, Lambsquarters [6, 10]: 100 | Plant response rating, Lambsquarters [6, 11]: 100 | Plant response rating, Lambsquarters [6, 12]: 95 | Plant response rating, Lambsquarters [6, 13]: 100 | Plant response rating, Lambsquarters [6, 16]: 100 | Plant response rating, Lambsquarters [6, 15]: 100 | Plant response rating, Ragweed [7, 8]: 45 | Plant response rating, Ragweed [7, 9]: 60 | Plant response rating, Ragweed [7, 10]: 60 | Plant response rating, Ragweed [7, 11]: 70 | Plant response rating, Soybean (soybean (Glycine max); [8]): 10 | Plant response rating, Soybean (soybean (Glycine max); [9]): 10 | Plant response rating, Soybean (soybean (Glycine max); [10]): 35 | Plant response rating, Soybean (soybean (Glycine max); [11]): 45 | Plant response rating, Soybean (soybean (Glycine max); [12]): 0 | Plant response rating, Soybean (soybean (Glycine max); [13]): 0 | Plant response rating, Soybean (soybean (Glycine max); [16]): 0 | Plant response rating, Soybean (soybean (Glycine max); [15]): 25

Cc1nn(-c2ccc(C(F)(F)F)cn2)nc1Oc1ccnc(C(F)(F)F)c1 [Compound 23]
Barnyardgrass plant response rating [1, 17]: 70 | Barnyardgrass plant response rating [1, 18]: 90 | Plant response rating, Barnyardgrass [1, 19]: 70 | Plant response rating, Barnyardgrass [1, 20]: 100 | Crabgrass, Large plant response rating [2, 17]: 90 | Crabgrass, Large plant response rating [2, 18]: 90 | Plant response rating, Crabgrass, Large [2, 19]: 100 | Plant response rating, Crabgrass, Large [2, 20]: 100 | Morningglory plant response rating [3, 17]: 90 | Morningglory plant response rating [3, 18]: 100 | Plant response rating, Morningglory [3, 19]: 80 | Plant response rating, Morningglory [3, 20]: 80 | Pigweed plant response rating [4, 17]: 100 | Pigweed plant response rating [4, 18]: 100 | Plant response rating, Pigweed [4, 19]: 100 | Plant response rating, Pigweed [4, 20]: 100 | Plant response rating, Blackgrass [5, 9]: 15 | Plant response rating, Blackgrass [5, 10]: 20 | Plant response rating, Blackgrass [5, 11]: 20 | Plant response rating, Blackgrass [5, 21]: 25 | Plant response rating, Blackgrass [5, 13]: 5 | Plant response rating, Blackgrass [5, 14]: 85 | Plant response rating, Blackgrass [5, 15]: 100 | Plant response rating, Blackgrass [5, 22]: 100 | Plant response rating, Lambsquarters [6, 9]: 40 | Plant response rating, Lambsquarters [6, 10]: 40 | Plant response rating, Lambsquarters [6, 11]: 98 | Plant response rating, Lambsquarters [6, 21]: 98 | Plant response rating, Lambsquarters [6, 13]: 95 | Plant response rating, Lambsquarters [6, 16]: 98 | Plant response rating, Lambsquarters [6, 15]: 98 | Plant response rating, Lambsquarters [6, 22]: 100 | Plant response rating, Ragweed [7, 9]: 10 | Plant response rating, Ragweed [7, 10]: 10 | Plant response rating, Ragweed [7, 11]: 20 | Plant response rating, Ragweed [7, 21]: 20 | Plant response rating, Ragweed [7, 13]: 5 | Plant response rating, Ragweed [7, 16]: 20 | Plant response rating, Ragweed [7, 15]: 20 | Plant response rating, Ragweed [7, 22]: 60 | Plant response rating, Soybean (soybean (Glycine max); [9]): 30 | Plant response rating, Soybean (soybean (Glycine max); [10]): 55 | Plant response rating, Soybean (soybean (Glycine max); [11]): 55 | Plant response rating, Soybean (soybean (Glycine max); [21]): 65 | Plant response rating, Soybean (soybean (Glycine max); [13]): 0 | Plant response rating, Soybean (soybean (Glycine max); [16]): 5 | Plant response rating, Soybean (soybean (Glycine max); [15]): 10 | Plant response rating, Soybean (soybean (Glycine max); [22]): 50
